This note sets out measurements from PMC3687672 (British Journal of Pharmacology, 2013).

The target in test [1] is T1, large-conductance Ca2+-activated K+ (BKCa) channel (Homo sapiens, UniProt Q12791). Kind of test: single-channel inside-out patch clamp. The class given is cell-based. (Patch clamp records ionic current or voltage across a cell membrane.)
The target of test [2] is T1, large-conductance Ca2+-activated K+ (BKCa) channel. The test can be described thus: whole-cell patch clamp. The class given is cell-based.

T1 sequence (Q12791 whole entry): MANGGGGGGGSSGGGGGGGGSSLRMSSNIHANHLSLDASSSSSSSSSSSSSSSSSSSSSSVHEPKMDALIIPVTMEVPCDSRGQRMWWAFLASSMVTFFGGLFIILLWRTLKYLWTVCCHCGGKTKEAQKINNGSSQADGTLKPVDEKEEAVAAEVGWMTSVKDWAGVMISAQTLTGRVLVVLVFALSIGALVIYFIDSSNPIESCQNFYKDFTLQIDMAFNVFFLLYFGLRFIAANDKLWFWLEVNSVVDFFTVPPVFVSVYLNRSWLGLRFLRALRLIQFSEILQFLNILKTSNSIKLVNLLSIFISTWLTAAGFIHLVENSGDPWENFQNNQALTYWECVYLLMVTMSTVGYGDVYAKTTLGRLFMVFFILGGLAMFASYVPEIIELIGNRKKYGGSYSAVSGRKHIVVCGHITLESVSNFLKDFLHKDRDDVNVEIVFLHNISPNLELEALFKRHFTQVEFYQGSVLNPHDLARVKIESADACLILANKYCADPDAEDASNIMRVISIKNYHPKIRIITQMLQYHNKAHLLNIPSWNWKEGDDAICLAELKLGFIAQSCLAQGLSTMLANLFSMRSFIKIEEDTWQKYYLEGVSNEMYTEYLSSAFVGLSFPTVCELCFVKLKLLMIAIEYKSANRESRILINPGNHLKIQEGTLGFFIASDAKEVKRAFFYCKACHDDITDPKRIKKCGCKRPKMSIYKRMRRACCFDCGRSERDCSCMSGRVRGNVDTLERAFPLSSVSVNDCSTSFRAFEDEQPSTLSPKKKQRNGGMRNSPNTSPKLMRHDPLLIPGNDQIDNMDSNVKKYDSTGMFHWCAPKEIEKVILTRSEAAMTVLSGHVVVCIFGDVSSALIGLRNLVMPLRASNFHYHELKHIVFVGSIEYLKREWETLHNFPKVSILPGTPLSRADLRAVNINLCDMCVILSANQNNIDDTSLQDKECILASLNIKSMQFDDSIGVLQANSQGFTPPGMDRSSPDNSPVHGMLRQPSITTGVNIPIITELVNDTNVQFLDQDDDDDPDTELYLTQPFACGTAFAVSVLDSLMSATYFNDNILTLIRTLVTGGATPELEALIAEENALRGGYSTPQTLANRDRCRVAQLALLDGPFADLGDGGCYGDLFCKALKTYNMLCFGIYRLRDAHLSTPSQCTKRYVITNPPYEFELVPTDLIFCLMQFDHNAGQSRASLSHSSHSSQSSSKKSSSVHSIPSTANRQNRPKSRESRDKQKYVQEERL

For `CCCCC/C=C\C/C=C\C/C=C\C/C=C\CCCC(=O)NCC(=O)O` [NAGly], the “single-channel inside-out patch clamp; whole-cell patch clamp with GDPbetaS” value in test [1] worked out at 3 µM.

The molecule `CC(C)(O)[C@H]1O[C@H]2CC[C@@]3(C)[C@@](O)(CC[C@H]4Cc5c([nH]c6ccccc56)[C@@]43C)C2=CC1=O` [paxilline] yielded a whole-cell patch clamp in test [2] of 1 µM.
